Reference: US9603890B2, “Methods for increasing the selective efficacy of gene therapy using CAR peptide and heparan-sulfate mediated macropinocytosis” (Vascular Biosciences, priority 2012, dated 2017)
Where two headings read alike, the source gives them in different places. Where no end group is shown, it is not given here.

How the values were obtained:
[1] = target: T1, Heparinase I (EC 4.2.2.7) (Pedobacter heparinus, UniProt Q05819); details: heparan sulfate moiety as substrate; cited from earlier work
T1 sequence (Q05819 22-384): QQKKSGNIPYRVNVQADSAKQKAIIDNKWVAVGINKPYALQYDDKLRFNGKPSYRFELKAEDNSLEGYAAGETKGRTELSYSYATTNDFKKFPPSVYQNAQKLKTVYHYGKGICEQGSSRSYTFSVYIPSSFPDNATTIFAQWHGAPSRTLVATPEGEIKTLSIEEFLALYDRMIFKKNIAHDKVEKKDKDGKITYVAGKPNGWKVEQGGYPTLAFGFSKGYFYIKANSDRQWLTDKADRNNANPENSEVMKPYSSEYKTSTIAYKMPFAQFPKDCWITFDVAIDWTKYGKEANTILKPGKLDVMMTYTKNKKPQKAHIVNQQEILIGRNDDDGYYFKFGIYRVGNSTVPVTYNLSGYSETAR

[2] = target: T2, Heparanase (EC 3.2.1.166) (Homo sapiens, UniProt Q9Y251); details: heparan sulfate moiety as substrate; cited from earlier work
T2 sequence (Q9Y251 158-543 limits assumed): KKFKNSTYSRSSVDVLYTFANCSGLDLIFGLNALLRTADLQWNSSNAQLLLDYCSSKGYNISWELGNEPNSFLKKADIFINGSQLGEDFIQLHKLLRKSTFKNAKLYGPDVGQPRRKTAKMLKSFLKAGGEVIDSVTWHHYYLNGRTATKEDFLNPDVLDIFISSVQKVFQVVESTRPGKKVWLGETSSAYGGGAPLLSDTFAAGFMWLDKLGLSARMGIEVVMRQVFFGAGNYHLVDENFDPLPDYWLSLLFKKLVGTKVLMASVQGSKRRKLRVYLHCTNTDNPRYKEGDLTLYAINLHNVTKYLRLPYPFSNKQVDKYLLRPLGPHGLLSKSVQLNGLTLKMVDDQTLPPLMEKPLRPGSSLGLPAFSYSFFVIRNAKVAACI
T2 sequence (Q9Y251 36-109 limits assumed): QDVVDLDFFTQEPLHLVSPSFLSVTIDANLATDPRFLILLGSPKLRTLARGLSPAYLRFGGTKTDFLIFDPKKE

[3] = Cell internalization and tissue penetration of truncated CAR versus CAR; format: cell-based
[4] = tested on: rats with severe occlusive pulmonary hypertension induced by Sugen injection followed by hypoxia; assay: MFN2 adenovirus gene therapy alone or co-administered with CAR peptide in severe occlusive PAH rats; format: in vivo, rat
Text: CAR peptide was able to exert its disease-selective adjuvant properties by allowing enhanced viral delivery and uptake of gene product (MFN2) in an animal model of severe occlusive PAH in rats. (A) Figure showing the effect of MFN2 GTx administered alone when compared to control and diseased animal not given MFN2 Gtx. Statistical significance was examined using ANOVA (see Supplement for further statistical information). (B) Change in mitofusion-2 mRNA levels relative to control. […] (D) mPAP (mmHg) levels in Sugen hypoxia rats.
Adenoviruses were used as viral delivery vectors to incorporate cDNA inserts of MFN2 into rats with severe occlusive pulmonary hypertension induced by Sugen injection followed by hypoxia (FIG. 1).
The MFN2 gene encodes the mitofusion-2 protein, which is a mitochondrial membrane protein that participates in mitochondrial fusion. Mitofusion-2 contributes to the maintenance and operation of the mitochondrial network, and is involved in the regulation of vascular smooth muscle cell (VSMC) proliferation. […] Successful delivery and uptake of the MFN2 gene via adenovirus delivery vector into diseased cells results in increased expression of the mitofusion-2 protein, regulation of VSMC proliferation, and a subsequent decrease in disease indicators. […]

[5] = tested on: Chinese hamster ovary cells; details: cited from earlier work
[6] = tested on: animal models of pulmonary arterial hypertension (PAH); details: cited from earlier work

2-O-sulfo-α-L-iduronic acid-2-deoxy-2-acetamido-α-D-glucopyranosyl [IdoA2S-GlcNS]
Heparinase I cleavage (EC 4.2.2.7) [1]: Yes | Heparanase cleavage (EC 3.2.1.166) [2]: No

CARSKNK [tCAR, truncated form of CAR]
potency for cell internalization and tissue penetration versus parent peptide CAR [3]: more potent

CARSKNKDC (also: cyclic, type not given here)
increase in gene therapy transfected gene expression [4]: 7 × | binding of CAR to Chinese hamster ovary cells ([5]; cells treated with heparinase I and III): greatly reduced | binding of CAR to Chinese hamster ovary cells ([5]; cells treated with heparinase I): greatly reduced | increase in selective vasodilation ([6]; CAR co-administered with vasodilators): approximately 2 × | increase in co-administered drug concentration ([6]; in vivo): 2 ×
